Usually EC50 stands for the midpoint of the concentration-response curve.

This note sets out measurements from patent US9504690B2, “Tetracyclic xanthene derivatives and methods of use thereof for the treatment of viral diseases” (Merck Sharp & Dohme Corp., priority 2011, dated 2016).

For one assay, the system named is HCV replicon 1a WT. Kind of assay: Cell-based HCV replicon assay, 1a WT. The following applies: Hepatitis C virus, 72 h; replicon cells, harvested day 3, replicon RNA by real time PCR (Taqman). The method, then: (§1) To measure cell-based anti-HCV activity of selected compounds of the present invention, replicon cells were seeded at 5000 cells/well in 96-well collagen I-coated Nunc plates in the presence of the test compound. Various concentrations of test compound, typically in 10 serial 2-fold dilutions, were added to the assay mixture, with the starting concentration ranging from 250 μM to 1 μM. The final concentration of DMSO was 0.5%, fetal bovine serum was 5%, in the assay media. Cells were harvested on day 3 by the addition of 1× cell lysis buffer (Ambion cat #8721). The replicon RNA level was measured using real time PCR (Taqman assay). The amplicon was located in 5B. The PCR primers were: 5B.2F, ATGGACAGGCGCCCTGA (SEQ. ID. NO. 1); 5B.2R, […] (SEQ. ID. NO. 2); the probe sequence was FAM-labeled CACGCCATGCGCTGCGG (SEQ. ID. NO. 3). GAPDH RNA was used as endogenous control and was amplified in the same reaction as NS5B (multiplex PCR) using primers and VIC-labeled probe recommended by the manufacturer (PE Applied Biosystem). The real-time RT-PCR reactions were run on ABI PRISM 7900HT Sequence Detection System using the following program: 48° C. for 30 minutes, 95° C. for 10 minutes, 40 cycles of 95° C. for 15 sec, 60° C. for 1 minutes. The ΔCT values (CT5B-CTGAPDH) were plotted against the concentration of test compound and fitted to the sigmoid dose-response model using XLfit4 (MDL). […] Alternatively, to quantitate the absolute amount of replicon RNA, a standard curve was established by including serially diluted T7 transcripts of replicon RNA in the Taqman assay. All Taqman reagents were from PE Applied Biosystems. Such an assay procedure was described in detail in e.g. Malcolm et al., Antimicrobial Agents and Chemotherapy 50: 1013-1020 (2006).
(§2) HCV replicon assay data was calculated for selected compounds of the present invention using this method and is provided in the table below.

The subject of another assay is HCV replicon 1a Y93H. Kind of assay: Cell-based HCV replicon assay, 1a Y93H. The note with it: Hepatitis C virus, 72 h, read-out: Replicon EC50 1a Y93H. The method, then: as §1, §2
In general terms: Replicon systems follow genome replication, usually without infectious particles.

The subject of a further assay is HCV replicon 1b WT. Kind of assay: Cell-based HCV replicon assay, 1b WT. The following applies: Hepatitis C virus, 72 h; replicon cells, harvested day 3, replicon RNA by real time PCR (Taqman). The method, then: as §1, §2
The subject of the next assay is HCV replicon 1b Y93H. Kind of assay: Cell-based HCV replicon assay, 1b Y93H. The following applies: Hepatitis C virus, 72 h, read-out: Replicon EC50 1b Y93H. The method, then: as §1, §2
For a further assay, the system named is HCV replicon 2a WT. Kind of assay: Cell-based HCV replicon assay, 2a WT. The note with it: Hepatitis C virus, 72 h; replicon cells, harvested day 3, replicon RNA by real time PCR (Taqman). The method, then:
as §1, §2

The subject of another assay is HCV replicon 2b WT. Kind of assay: Cell-based HCV replicon assay, 2b WT. The note with it: Hepatitis C virus, 72 h; replicon cells, harvested day 3, replicon RNA by real time PCR (Taqman). The method, then:
as §1, §2

In another assay the test system is HCV replicon 3a WT. Kind of assay: Cell-based HCV replicon assay, 3a WT. The note with it: Hepatitis C virus, 72 h; replicon cells, harvested day 3, replicon RNA by real time PCR (Taqman). The method, then:
as §1, §2

Another assay relates to HCV replicon 4a WT. Kind of assay: Cell-based HCV replicon assay, 4a WT. The note with it: Hepatitis C virus, 72 h; replicon cells, harvested day 3, replicon RNA by real time PCR (Taqman). The method, then:
as §1, §2

As for `COC(=O)N[C@H](C(=O)N1CCC[C@H]1c1ncc(-c2cc3c4c(c2)Oc2ccc(-c5cnc([C@@H]6CCCN6C(=O)[C@@H](NC(=O)OC)C(C)C)[nH]5)cc2N4CC3)[nH]1)C(C)C` [Compound 6, Methyl [(2S)-1-{(2S)-2-[5-(4-{2-[(2S)-1-{(2S)-2-[(methoxycarbonyl)amino]-3-methylbutanoyl}pyrrolidin-2-yl]-1H-imidazol-5-yl}-1,2-dihydropyrrolo[3,2,1-kl]phenoxazin-9-yl)-1H-imidazol-2-yl]pyrrolidin-1-yl}-3-methyl-1-oxobutan-2-yl]carbamate], the EC50 in the assay with HCV replicon 1a WT is 37 pM; in the assay on HCV replicon 1a Y93H, 43500 pM; in the assay on HCV replicon 1b WT it was 5 pM; with HCV replicon 1b Y93H it was 303 pM; in the assay on HCV replicon 2a WT, 11 pM; with HCV replicon 2b WT it was 18900 pM. For the same compound, the EC50 in the assay on HCV replicon 3a WT and in the assay with HCV replicon 4a WT was 220 pM each time.

Consider `COC(=O)N[C@H](C(=O)N1CCC[C@H]1c1ncc(-c2ccc3c(c2)-n2ccc4cc(-c5cnc([C@@H]6CCCN6C(=O)[C@@H](NC(=O)OC)C(C)C)[nH]5)cc(c42)O3)[nH]1)C(C)C` [Compound 16], for which the EC50 with HCV replicon 1a WT was determined as 100 pM; in the assay on HCV replicon 1a Y93H, 50900 pM; in the assay with HCV replicon 1b WT, 9 pM; with HCV replicon 1b Y93H, 9100 pM; in the assay with HCV replicon 2a WT, 104 pM; with HCV replicon 2b WT, 9070 pM. Moreover, the EC50 was found to be 9610 pM in the assay on HCV replicon 3a WT and 1310 pM in the assay with HCV replicon 4a WT.

Turning to `COC(=O)N[C@H](C(=O)N1CCC[C@H]1c1ncc(-c2ccc3c(c2)Oc2ccc(-c4cnc([C@@H]5CCCN5C(=O)[C@@H](NC(=O)OC)C(C)C)[nH]4)c4cnn-3c24)[nH]1)C(C)C` [Compound 10, Methyl [(2S)-1-{(2S)-2-[5-(3-{2-[(2S)-1-{(2S)-2-[(methoxycarbonyl)amino]-3-methylbutanoyl}pyrrolidin-2-yl]-1H-imidazol-5-yl}pyrazolo[4,5,1-kl]phenoxazin-8-yl)-1 H-imidazol-2-yl]pyrrolidin-1-yl}-3-methyl-1-oxobutan-2-yl]carbamate], the EC50 in the assay with HCV replicon 1a WT came to 27 pM; in the assay on HCV replicon 1a Y93H, 35100 pM; in the assay with HCV replicon 1b WT, 5 pM; in the assay with HCV replicon 2a WT, 3 pM; in the assay on HCV replicon 2b WT it was 49000 pM; in the assay on HCV replicon 3a WT it was 690 pM. Further, in the assay on HCV replicon 4a WT, the response was half-maximal at 370 pM (EC50).

For the compound `COC(=O)N[C@H](C(=O)N1CCC[C@H]1c1ncc(-c2ccc3c(c2)Oc2ccc(-c4cnc([C@@H]5CCCN5C(=O)[C@@H](NC(=O)OC)C(C)C)[nH]4)c4occ-3c24)[nH]1)C(C)C` [Compound 14, Methyl [(2S)-1-{(2S)-2-[5-(3-{2-[(2S)-1-{(2S)-2-[(methoxycarbonyl)amino]-3-methylbutanoyl}pyrrolidin-2-yl]-1H-imidazol-5-yl}furo[2,3,4-kl]xanthen-8-yl)-1H-imidazol-2-yl]pyrrolidin-1-yl}-3-methyl-1-oxobutan-2-yl]carbamate], the EC50 with HCV replicon 1a WT worked out at 11 pM; with HCV replicon 1a Y93H, 31500 pM; with HCV replicon 1b WT, 2 pM; with HCV replicon 1b Y93H, 278 pM; in the assay on HCV replicon 2a WT, 2 pM; in the assay with HCV replicon 2b WT it was 34500 pM. Besides, the EC50 turned out to be 161 pM in the assay with HCV replicon 3a WT and 56 pM in the assay on HCV replicon 4a WT.

For the compound `COC(=O)N[C@H](C(=O)N1CCC[C@H]1c1ncc(-c2ccc3c(c2)Oc2ccc(-c4cnc([C@@H]5CCCN5C(=O)[C@@H](NC(=O)OC)C(C)C)[nH]4)c4c2N3CC4)[nH]1)C(C)C` [Compound 17], the 50% effective concentration (EC50) came out at 6 pM in the assay with HCV replicon 1a WT; 19500 pM in the assay on HCV replicon 1a Y93H; 1 pM with HCV replicon 1b WT; 19600 pM in the assay on HCV replicon 1b Y93H; 7 pM in the assay with HCV replicon 2a WT; 19600 pM with HCV replicon 2b WT. For the same compound, the results for the EC50 in the assay on HCV replicon 3a WT and in the assay on HCV replicon 4a WT were 67 pM and 26 pM, respectively.

`COC(=O)N[C@H](C(=O)N1CC(F)(F)C[C@H]1c1ncc(-c2ccc3c(c2)Oc2ccc(-c4cnc([C@@H]5CC(F)(F)CN5C(=O)[C@@H](NC(=O)OC)C(C)C)[nH]4)c4c2N3CCC4)[nH]1)C(C)C` [Compound 19]: the EC50 in the assay on HCV replicon 1a WT came to 100 pM; in the assay with HCV replicon 1b WT, 3 pM; in the assay with HCV replicon 2a WT, 530 pM; in the assay with HCV replicon 2b WT it was 122000 pM; in the assay on HCV replicon 3a WT it was 10000 pM; in the assay with HCV replicon 4a WT, 170 pM.

Turning to `COC(=O)N[C@H](C(=O)N1CCC[C@H]1c1ncc(-c2ccc3c(c2)Oc2ccc(-c4cnc([C@@H]5CCCN5C(=O)[C@@H](NC(=O)OC)C(C)C)[nH]4)c4ccn-3c24)[nH]1)C(C)C` [Compound 1, Methyl [(2S)-1-{(2S)-2-[5-(3-{2-[(2S)-1-{(2S)-2-[(methoxycarbonyl)amino]-3-methyl-butanoyl}pyrrolidin-2-yl]-1H-imidazol-5-yl}pyrrolo[3,2,1-kl]phenoxazin-8-yl)-1H-imidazol-2-yl]pyrrolidin-1-yl}-3-methyl-1-oxobutan-2-yl]carbamate], the EC50 was found to be 10.7 pM with HCV replicon 1a WT; 41700 pM in the assay with HCV replicon 1a Y93H; 9 pM in the assay on HCV replicon 1b WT; 560 pM in the assay on HCV replicon 1b Y93H; 4 pM in the assay on HCV replicon 2a WT; 323 pM in the assay with HCV replicon 3a WT. Besides, in the assay with HCV replicon 4a WT, the EC50 came out at 44 pM.

`COC(=O)N[C@H](C(=O)N1CCC[C@H]1c1ncc(-c2cc3c4c(c2)Oc2ccc(-c5cnc([C@@H]6CCCN6C(=O)[C@@H](NC(=O)OC)C(C)C)[nH]5)cc2N4CCO3)[nH]1)C(C)C` [Compound 13, Methyl [(2S)-1-{(2S)-2-[5-(5-{2-[(2S)-1-{(2S)-2-[(methoxycarbonyl)amino]-3-methylbutanoyl}pyrrolidin-2-yl]-1H-imidazol-5-yl}-1,2-dihydro[1,4]oxazino[2,3,4-kl]phenoxazin-10-yl)-1H-imidazol-2-yl]pyrrolidin-1-yl}-3-methyl-1-oxobutan-2-yl]carbamate]: the EC50 turned out to be 2 pM with HCV replicon 1a WT; 143000 pM in the assay with HCV replicon 1a Y93H; 5 pM with HCV replicon 1b WT; 19000 pM in the assay with HCV replicon 1b Y93H; 10 pM in the assay with HCV replicon 2a WT; 19300 pM with HCV replicon 2b WT. Besides, the EC50 was 1630 pM in the assay with HCV replicon 3a WT and 480 pM with HCV replicon 4a WT.
